Experimental data from US20260022142A1, “MACROCYCLIC IMMUNOMODULATORS” (Bristol-Myers Squibb Company, priority 2022, published 2026).
Bridge positions count the residues as written; N and C are the ends. Square brackets hold non-standard residues; d marks the D form. Peptide text beside a SMILES is read from it. * marks the point of attachment. Phe(4-COOH) = N[C@@H](Cc1ccc(C(=O)O)cc1)C(=O)O; Bip = N[C@@H](Cc1ccc(-c2ccccc2)cc1)C(=O)O; Phe(3-Me) = Cc1cccc(C[C@H](N)C(=O)O)c1; Val(3-OH) = CC(C)(O)[C@H](N)C(=O)O; 4Pal = N[C@@H](Cc1ccncc1)C(=O)O; Cha = N[C@@H](CC1CCCCC1)C(=O)O; Cit = NC(=O)NCCC[C@H](N)C(=O)O; Carboxymethyl = O=C(O)C*; Orn = NCCC[C@H](N)C(=O)O; Aun = NCCCCCCCCCCC(=O)O; Dab = NCC[C@H](N)C(=O)O; Dap = NC[C@H](N)C(=O)O; AEEA = NCCOCCOCC(=O)O

These compounds were tested against T1, PD-1/PD-L1 interaction (PE-labeled human PD-L1-Ig binding to Jurkat cell line over-expressing human PD-1) (Homo sapiens, UniProt Q15116) (assay: Jurkat-PD-1 Cell Binding High-Content Screening Assay (CBA)). Conditions: Jurkat cell line over-expressing human PD-1; PE-labeled PD-L1-Ig 20 nM final; read-out: Jurkat hPD1-PDL1 IC50.
T1 construct: expressed in transfected cells; host or cells: Jurkat
T1 sequence (Q15116 25-288): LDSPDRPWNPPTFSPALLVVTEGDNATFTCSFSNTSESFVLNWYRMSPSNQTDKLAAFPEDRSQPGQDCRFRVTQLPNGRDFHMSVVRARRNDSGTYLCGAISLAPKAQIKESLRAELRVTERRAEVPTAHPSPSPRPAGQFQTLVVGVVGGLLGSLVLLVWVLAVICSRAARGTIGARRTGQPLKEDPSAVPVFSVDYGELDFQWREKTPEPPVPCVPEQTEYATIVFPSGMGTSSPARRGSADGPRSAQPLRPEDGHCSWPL
Type: cell-based
In short: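 Jurkat-hPD-1 cells, DMEM/10% FCS; cpd 2 h 37° C; PE-PD-L1-Ig 20 nM final, 1 h; 4% PFA fix + Hoechst 33342, 3× dPBS wash; high-content imaging read-out.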

Compound	IC50 [nM]
Cc1cccc(C[C@@H]2NC(=O)[C@H](CC(=O)O)NC(=O)[C@H](Cc3ccc(OCC(=O)O)cc3)NC(=O)[C@H](CCCNC(=N)N)NC(=O)CSC[C@@H](C(=O)N[C@@H](CCCCN)C(=O)NCCCCCCCCCCC(=O)O)NC(=O)[C@H](CN)NC(=O)[C@H](C(C)(C)O)NC(=O)[C@H](CC3CCCCC3)NC(=O)[C@H](CCN)NC(=O)[C@@H](CC(C)C)NC(=O)[C@H](CCCN)NC(=O)[C@H](Cc3ccc(OCC(=O)O)cc3)NC(=O)[C@H](Cc3ccc(-c4ccccc4)cc3)NC(=O)[C@H](Cc3ccc(OCC(=O)O)cc3)NC2=O)c1 [Compound 2850] ({CH2CO}-RY(Carboxymethyl)D[Phe(3-Me)]Y(Carboxymethyl)[Bip]Y(Carboxymethyl)[Orn][dL][Dab][Cha][Val(3-OH)][Dap]CK[Aun]-OH; thioether N-14)	30.4
Cc1cccc(C[C@@H]2NC(=O)[C@H](CC(=O)O)NC(=O)[C@H](Cc3ccc(OCC(=O)O)cc3)NC(=O)[C@H](CCCNC(=N)N)NC(=O)CSC[C@@H](C(=O)N[C@@H](CO)C(=O)N[C@@H](CO)C(=O)NCCCCCCCCCCC(=O)O)NC(=O)[C@H]([C@@H](C)O)NC(=O)[C@H](C(C)C)NC(=O)[C@H](CC3CCCCC3)NC(=O)[C@H](CCN)NC(=O)[C@@H](CC(C)C)NC(=O)[C@H](CCCN)NC(=O)[C@H](CCCNC(N)=O)NC(=O)[C@H](Cc3ccc(-c4ccccc4)cc3)NC(=O)[C@H](C(C)C)NC2=O)c1 [Compound 2851] ({CH2CO}-RY(Carboxymethyl)D[Phe(3-Me)]V[Bip][Cit][Orn][dL][Dab][Cha]VTCSS[Aun]-OH; thioether N-14)	21.3
Cc1cccc(C[C@@H]2NC(=O)[C@H](CC(=O)O)NC(=O)[C@H](Cc3ccc(OCC(=O)O)cc3)NC(=O)[C@H](CN)NC(=O)CSC[C@@H](C(=O)N[C@@H](CO)C(=O)N[C@@H](CO)C(=O)NCCCCCCCCCCC(=O)O)NC(=O)[C@H]([C@@H](C)O)NC(=O)[C@H](C(C)C)NC(=O)[C@H](CC3CCCCC3)NC(=O)[C@H](CCN)NC(=O)[C@@H](CC(C)C)NC(=O)[C@H](CCCN)NC(=O)[C@H](CCCNC(N)=O)NC(=O)[C@H](Cc3ccc(-c4ccccc4)cc3)NC(=O)[C@H](C(C)C)NC2=O)c1 [Compound 2852] ({CH2CO}-[Dap]Y(Carboxymethyl)D[Phe(3-Me)]V[Bip][Cit][Orn][dL][Dab][Cha]VTCSS[Aun]-OH; thioether N-14)	21
Cc1cccc(C[C@@H]2NC(=O)[C@H](CC(=O)O)NC(=O)[C@H](Cc3ccc(OCC(=O)O)cc3)NC(=O)[C@H](CN)NC(=O)CSC[C@@H](C(=O)N[C@@H](CCN)C(=O)N[C@@H](CO)C(=O)N[C@@H](CO)C(=O)NCCCCCCCCCCC(=O)O)NC(=O)[C@H]([C@@H](C)O)NC(=O)[C@H](C(C)C)NC(=O)[C@H](CC3CCCCC3)NC(=O)[C@H](CCN)NC(=O)[C@@H](CC(C)C)NC(=O)[C@H](CCCN)NC(=O)[C@H](CCCNC(N)=O)NC(=O)[C@H](Cc3ccc(-c4ccccc4)cc3)NC(=O)[C@H](C(C)C)NC2=O)c1 [Compound 2853] ({CH2CO}-[Dap]Y(Carboxymethyl)D[Phe(3-Me)]V[Bip][Cit][Orn][dL][Dab][Cha]VTC[Dab]SS[Aun]-OH; thioether N-14)	65.5
Cc1cccc(C[C@@H]2NC(=O)[C@H](CC(=O)O)NC(=O)[C@H](Cc3ccc(OCC(=O)O)cc3)NC(=O)[C@H](CCCNC(=N)N)NC(=O)CSC[C@@H](C(=O)N[C@@H](CCN)C(=O)NCCCCCCCCCCC(=O)O)NC(=O)[C@H]([C@@H](C)O)NC(=O)[C@H](C(C)C)NC(=O)[C@H](CC3CCCCC3)NC(=O)[C@H](CCN)NC(=O)[C@@H](CC(C)C)NC(=O)[C@H](CCCN)NC(=O)[C@H](CCC(N)=O)NC(=O)[C@H](Cc3ccc(-c4ccccc4)cc3)NC(=O)[C@H](Cc3ccc(OCC(=O)O)cc3)NC2=O)c1 [Compound 2854] ({CH2CO}-RY(Carboxymethyl)D[Phe(3-Me)]Y(Carboxymethyl)[Bip]Q[Orn][dL][Dab][Cha]VTC[Dab][Aun]-OH; thioether N-14)	16.8
Cc1cccc(C[C@@H]2NC(=O)[C@H](CC(=O)O)NC(=O)[C@H](Cc3ccc(OCC(=O)O)cc3)NC(=O)[C@H](CCCNC(=N)N)NC(=O)CSC[C@@H](C(=O)N[C@@H](CCCN)C(=O)NCCCCCCCCCCC(=O)O)NC(=O)[C@H](CCC(N)=O)NC(=O)[C@H](C(C)C)NC(=O)[C@H](CC3CCCCC3)NC(=O)[C@H](CCN)NC(=O)[C@@H](CC(C)C)NC(=O)[C@H](CCN)NC(=O)[C@H](Cc3ccc(OCC(=O)O)cc3)NC(=O)[C@H](Cc3ccc(-c4ccccc4)cc3)NC(=O)[C@H](Cc3ccc(OCC(=O)O)cc3)NC2=O)c1 [Compound 2855] ({CH2CO}-RY(Carboxymethyl)D[Phe(3-Me)]Y(Carboxymethyl)[Bip]Y(Carboxymethyl)[Dab][dL][Dab][Cha]VQC[Orn][Aun]-OH; thioether N-14)	19.6
Cc1cccc(C[C@@H]2NC(=O)[C@H](CC(=O)O)NC(=O)[C@H](Cc3ccc(OCC(=O)O)cc3)NC(=O)[C@H](CN)NC(=O)CSC[C@@H](C(=O)N[C@@H](CCCN)C(=O)NCCCCCCCCCCC(=O)O)NC(=O)[C@H](CCC(=O)O)NC(=O)[C@H](C(C)C)NC(=O)[C@H](CC3CCCCC3)NC(=O)[C@H](CCN)NC(=O)[C@@H](CC(C)C)NC(=O)[C@H](CCN)NC(=O)[C@H](Cc3ccc(OCC(=O)O)cc3)NC(=O)[C@H](Cc3ccc(-c4ccccc4)cc3)NC(=O)[C@H](Cc3ccc(OCC(=O)O)cc3)NC2=O)c1 [Compound 2856] ({CH2CO}-[Dap]Y(Carboxymethyl)D[Phe(3-Me)]Y(Carboxymethyl)[Bip]Y(Carboxymethyl)[Dab][dL][Dab][Cha]VEC[Orn][Aun]-OH; thioether N-14)	19.7
Cc1cccc(C[C@@H]2NC(=O)[C@H](CC(=O)O)NC(=O)[C@H](Cc3ccc(OCC(=O)O)cc3)NC(=O)[C@H](CN)NC(=O)CSC[C@@H](C(=O)N[C@@H](CCCN)C(=O)NCCCCCCCCCCC(=O)O)NC(=O)[C@H](CCC(N)=O)NC(=O)[C@H](C(C)C)NC(=O)[C@H](CC3CCCCC3)NC(=O)[C@H](CCN)NC(=O)[C@@H](CC(C)C)NC(=O)[C@H](CCN)NC(=O)[C@H](Cc3ccc(OCC(=O)O)cc3)NC(=O)[C@H](Cc3ccc(-c4ccccc4)cc3)NC(=O)[C@H](Cc3ccc(OCC(=O)O)cc3)NC2=O)c1 [Compound 2857] ({CH2CO}-[Dap]Y(Carboxymethyl)D[Phe(3-Me)]Y(Carboxymethyl)[Bip]Y(Carboxymethyl)[Dab][dL][Dab][Cha]VQC[Orn][Aun]-OH; thioether N-14)	35
Cc1cccc(C[C@@H]2NC(=O)[C@H](CC(=O)O)NC(=O)[C@H](Cc3ccc(OCC(=O)O)cc3)NC(=O)[C@H](CN)NC(=O)CSC[C@@H](C(=O)N[C@@H](CCN)C(=O)NCCCCCCCCCCC(=O)O)NC(=O)[C@H](CCCN)NC(=O)[C@H](C(C)C)NC(=O)[C@H](CC3CCCCC3)NC(=O)[C@H](CCN)NC(=O)[C@@H](CC(C)C)NC(=O)[C@H](CCCN)NC(=O)[C@H](Cc3ccc(OCC(=O)O)cc3)NC(=O)[C@H](Cc3ccc(-c4ccccc4)cc3)NC(=O)[C@H](Cc3ccc(O)cc3)NC2=O)c1 [Compound 2858] ({CH2CO}-[Dap]Y(Carboxymethyl)D[Phe(3-Me)]Y[Bip]Y(Carboxymethyl)[Orn][dL][Dab][Cha]V[Orn]C[Dab][Aun]-OH; thioether N-14)	11.9
Cc1cccc(C[C@@H]2NC(=O)[C@H](CC(=O)O)NC(=O)[C@H](Cc3ccc(OCC(=O)O)cc3)NC(=O)[C@H](CN)NC(=O)CSC[C@@H](C(=O)N[C@@H](CCN)C(=O)NCCOCCOCC(=O)NCCCCCCCCCCC(=O)O)NC(=O)[C@H](CCCN)NC(=O)[C@H](C(C)C)NC(=O)[C@H](CC3CCCCC3)NC(=O)[C@H](CCN)NC(=O)[C@@H](CC(C)C)NC(=O)[C@H](CCCN)NC(=O)[C@H](Cc3ccc(OCC(=O)O)cc3)NC(=O)[C@H](Cc3ccc(-c4ccccc4)cc3)NC(=O)[C@H](Cc3ccc(O)cc3)NC2=O)c1 [Compound 2859] ({CH2CO}-[Dap]Y(Carboxymethyl)D[Phe(3-Me)]Y[Bip]Y(Carboxymethyl)[Orn][dL][Dab][Cha]V[Orn]C[Dab][AEEA][Aun]-OH; thioether N-14)	7.8
Cc1cccc(C[C@@H]2NC(=O)[C@H](CC(=O)O)NC(=O)[C@H](Cc3ccc(OCC(=O)O)cc3)NC(=O)[C@H](CN)NC(=O)CSC[C@@H](C(=O)N[C@@H](CCN)C(=O)NCCOCCOCC(=O)NCCCCCCCCCCC(=O)O)NC(=O)[C@H](CCCN)NC(=O)[C@H](C(C)C)NC(=O)[C@H](CC3CCCCC3)NC(=O)[C@H](CCN)NC(=O)[C@@H](CC(C)C)NC(=O)[C@H](CCCN)NC(=O)[C@H](Cc3ccc(OCC(=O)O)cc3)NC(=O)[C@H](Cc3ccc(-c4ccccc4)cc3)NC(=O)[C@H](Cc3ccc(OCC(=O)O)cc3)NC2=O)c1 [Compound 2860] ({CH2CO}-[Dap]Y(Carboxymethyl)D[Phe(3-Me)]Y(Carboxymethyl)[Bip]Y(Carboxymethyl)[Orn][dL][Dab][Cha]V[Orn]C[Dab][AEEA][Aun]-OH; thioether N-14)	11.2
Cc1cccc(C[C@@H]2NC(=O)[C@H](CC(=O)O)NC(=O)[C@H](Cc3ccc(OCC(=O)O)cc3)NC(=O)[C@H](Cc3ccncc3)NC(=O)CSC[C@@H](C(=O)N[C@@H](CCN)C(=O)NCCOCCOCC(=O)NCCCCCCCCCCC(=O)O)NC(=O)[C@H](CO)NC(=O)[C@H](C(C)(C)O)NC(=O)[C@H](CC3CCCCC3)NC(=O)[C@H](CCN)NC(=O)[C@@H](CC(C)C)NC(=O)[C@H](CCCN)NC(=O)[C@H](Cc3ccc(C(=O)O)cc3)NC(=O)[C@H](Cc3ccc(-c4ccccc4)cc3)NC(=O)[C@H](Cc3ccc(C(=O)O)cc3)NC2=O)c1 [Compound 2862] ({CH2CO}-[4Pal]Y(Carboxymethyl)D[Phe(3-Me)][Phe(4-COOH)][Bip][Phe(4-COOH)][Orn][dL][Dab][Cha][Val(3-OH)]SC[Dab][AEEA][Aun]-OH; thioether N-14)	228
